Measurements: patent publication US20170362243A1, “BIARYLETHER IMIDAZOPYRAZINE BTK INHIBITORS” (MERCK SHARP & DOHME CORP., priority 2014, published 2017)

Molecular target: T1, BTK enzyme (recombinant full-length BTK, hBTK) (Homo sapiens, UniProt Q06187)
T1 construct: recombinant protein from baculovirus-transfected Sf9 cells: full-length BTK, 6HIS-tag cleaved; 6HIS (cleaved yes); made in house; host or cells: baculovirus-transfected Sf9 cells
Test: Btk enzyme activity assay, LANCE TR-FRET
Type: biochemical
Settings: 50 pM hBTK, 2 μM biotin-A5-peptide, 25 μM ATP, 60 minute compound & enzyme incubation, read-out: BTK binding IC50
Experimental: BTK enzymatic activity was determined with the LANCE (Lanthanide Chelate Excite) TR-FRET (Time-resolved fluorescence resonance energy transfer) assay. In this assay, the potency (IC50) of each compound was determined from an eleven point (1:3 serial dilution; final compound concentration range in assay from 1 μM to 0.017 nM) titration curve using the following outlined procedure. To each well of a black non-binding surface Corning 384-well microplate (Corning Catalog #3820), 5 nL of compound (2000 fold dilution in final assay volume of 10 μL) was dispensed, followed by the addition of 7.5 μL of 1× kinase buffer (50 mM Hepes 7.5, 10 mM MgCl2, 0.01% Brij-35, 1 mM EGTA, 0.05% BSA & 1 mM DTT) containing 5.09 pg/μL (66.67 pM) of BTK enzyme (recombinant protein from baculovirus-transfected Sf9 cells: full-length BTK, 6HIS-tag cleaved). Following a 60 minute compound & enzyme incubation, each reaction was initiated by the addition of 2.5 μL 1× kinase buffer containing 8 μM biotinylated “A5” peptide (Biotin-EQEDEPEGDYFEWLE-NH2) (SEQ.ID.NO.: 1), and 100 μM ATP. The final reaction in each well of 10 μL consists of 50 pM hBTK, 2 μM biotin-A5-peptide, and 25 μM ATP. Phosphorylation reactions were allowed to proceed for 120 minutes. Reactions were immediately quenched by the addition of 20 uL of 1× quench buffer (15 mM EDTA, 25 mM Hepes 7.3, and 0.1% Triton X-100) containing detection reagents (0.626 nM of LANCE-Eu-W1024-anti-phosphoTyrosine antibody, PerkinElmer and 86.8 nM of Streptavidin-conjugated Dylight 650, Dyomics/ThermoFisher Scientific). After 60 minutes incubation with detection reagents, reaction plates were read on a PerkinElmer EnVision plate reader using standard TR-FRET protocol. Briefly, excitation of donor molecules (Eu-chelate:anti-phospho-antibody) with a laser light source at 337 nm produces energy that can be transferred to Dylight-650 acceptor molecules if this donor:acceptor pair is within close proximity. Fluorescence intensity at both 665 nm (acceptor) and 615 nm (donor) are measured and a TR-FRET ratio calculated for each well (acceptor intensity/donor intensity). IC50 values were determined by 4 parameter robust fit of TR-FRET ratio values vs. (Log10) compound concentrations.
The following Table 3 provides specific IC50 values for all the examples. The IC50 values set forth below were determined according to Assay method described above.

T1 sequence (Q06187 whole entry): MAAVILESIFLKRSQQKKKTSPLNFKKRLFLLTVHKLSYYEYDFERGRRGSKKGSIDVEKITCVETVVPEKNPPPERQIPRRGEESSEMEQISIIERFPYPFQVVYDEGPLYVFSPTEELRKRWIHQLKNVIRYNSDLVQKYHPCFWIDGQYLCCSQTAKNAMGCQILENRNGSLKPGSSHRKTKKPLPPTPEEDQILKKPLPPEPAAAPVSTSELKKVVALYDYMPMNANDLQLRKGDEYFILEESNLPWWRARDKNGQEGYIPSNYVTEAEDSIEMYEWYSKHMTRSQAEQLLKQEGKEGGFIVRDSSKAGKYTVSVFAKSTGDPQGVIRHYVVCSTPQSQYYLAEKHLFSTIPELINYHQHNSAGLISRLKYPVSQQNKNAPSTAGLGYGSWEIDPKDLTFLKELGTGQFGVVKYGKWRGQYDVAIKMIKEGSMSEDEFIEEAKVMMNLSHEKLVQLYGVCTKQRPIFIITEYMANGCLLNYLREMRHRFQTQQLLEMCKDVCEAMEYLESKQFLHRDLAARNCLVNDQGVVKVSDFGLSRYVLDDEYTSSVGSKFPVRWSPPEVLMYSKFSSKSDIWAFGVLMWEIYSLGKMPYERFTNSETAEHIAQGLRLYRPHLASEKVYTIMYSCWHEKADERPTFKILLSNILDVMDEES

| Structure (SMILES) | IC50 |
| --- | --- |
| CCC[C@@]1(C(=O)O)CCC[C@@H](c2nc(-c3ccc(Oc4ccccc4)cc3)c3c(N)nccn23)C1 [Example 20, (1R,3R)-3-[8-amino-1-(4-phenoxyphenyl)imidazo[1,5-a]pyrazin-3-yl]-1-propylcyclohexane-carboxylic acid] | 4.9 nM |
| C[C@]1(C(=O)O)CCC[C@@H](c2nc(-c3ccc(Oc4cccc(F)c4)cc3)c3c(N)nccn23)C1 [Example 13, (1S,3R)-3-{8-amino-1-[4-(3-fluorophenoxy)phenyl]imidazo[1,5-a]pyrazin-3-yl}-1-methylcyclohexanecarboxylic acid] | 5.9 nM |
| CC1(C)[C@@H](C(=O)O)C[C@H]1c1nc(-c2ccc(Oc3ccccc3)cc2)c2c(N)nccn12 [Example 18, (1 S,3R)-3-(8-amino-1-(4-phenoxyphenyl)imidazo[1,5-a]pyrazin-3-1)-2,2-dimethylcyclobutanecarboxylic acid] | 3.5 nM |
| CC(C)[C@@]1(C(=O)O)CCC(c2nc(-c3ccc(Oc4cccc(F)c4)cc3)c3c(N)nccn23)C1 (stereo in doubt) [Example 4, (1R,3S)-3-{8-amino-1-[4-(3-fluorophenoxy)phenyl]imidazo[1,5-a]pyrazin-3-yl}-1-(1-methylethyl)cyclo-pentanecarboxylic acid] | 4.4 nM |
| Nc1nccn2c([C@@H]3CCC[C@H](C(=O)O)C3)nc(-c3ccc(Oc4ccccc4)cc3)c12 [Example 9, (1S,3R)-3-[8-amino-1-(4-phenoxyphenyl)imidazo[1,5-a]pyrazin-3-yl]cyclohexanecarboxylic acid] | 7.1 nM |
| CC(C)[C@@]1(C(=O)O)CC[C@H](c2nc(-c3ccc(Oc4cccc(F)c4)cc3)c3c(N)nccn23)C1 [Example 3, (1R,3S)-3-{8-amino-1-[4-(3-fluorophenoxy)phenyl]imidazo[1,5-a]pyrazin-3-yl}-1-(1-methylethyl)cyclo-pentanecarboxylic acid] | 19.5 nM |
| CC(C)(C(=O)O)C1CCC(c2nc(-c3ccc(Oc4ccccc4)cc3)c3c(N)nccn23)C1 (centres unmarked) [Example 7, 2-{3-[8-amino-1-(4-phenoxyphenyl)imidazo[1,5-a]pyrazin-3-yl]cyclopentyl}-2-methylpropanoic acid] | 2.1 nM |
| Nc1nccn2c(C3CCC(C(=O)O)O3)nc(-c3ccc(Oc4ccccc4)cc3)c12 (single isomer, unassigned) [Example 27, 5-[8-amino-1-(4-phenoxyphenyl)imidazo[1,5-a]pyrazin-3-yl]tetrahydrofuran-2-carboxylic acid (E2)] | 12.5 nM |
| C[C@]1(C(=O)O)CC[C@H](c2nc(-c3ccc(Oc4ccccc4)cc3)c3c(N)nccn32)CC1 [Example 25, Trans-4-[8-amino-1-(4-phenoxyphenyl)imidazo[1,5-a]pyrazin-3-yl]-1-methylcyclohexane carboxylic acid] | 12.3 nM |
| Nc1nccn2c(C34CCCC(C(=O)O)(CC3)CC4)nc(-c3ccc(Oc4ccccc4)cc3)c12 [Example 21, 5-[8-amino-1-(4-phenoxyphenyl)imidazo[1,5-a]pyrazin-3-yl]bicyclo[3.2.2] nonane-1-carboxylic acid] | 0.14 nM |
| CC1(C(=O)O)CCC(C)(c2nc(-c3ccc(Oc4ccccc4)cc3)c3c(N)nccn23)C1 (single isomer, unassigned) [Example 28, 3-[8-amino-1-(4-phenoxyphenyl)imidazo[1,5-a]pyrazin-3-yl]-1,3-dimethylcyclo-pentanecarboxylic acid (E1)] | 0.23 nM |
| CC1(C(=O)O)CCC(C)(c2nc(-c3ccc(Oc4ccccc4)cc3)c3c(N)nccn23)C1 (single isomer, unassigned) [Example 29, 3-[8-amino-1-(4-phenoxyphenyl)imidazo[1,5-a]pyrazin-3-yl]-1,3-dimethylcyclo-pentanecarboxylic acid (E2)] | 1.3 nM |
| Nc1nccn2c(N3CCC[C@H](C(=O)O)C3)nc(-c3ccc(Oc4ccccc4)cc3)c12 [Example 1, (S)-1-(8-amino-1-(4-phenoxyphenyl)imidazo[1,5-a]pyrazin-3-yl)piperidine-3-carboxylic acid] | 2.7 nM |
| Nc1nccn2c([C@@H]3CCC[C@@H](C(=O)O)C3)nc(-c3ccc(Oc4ccccc4)cc3)c12 (relative stereo) [Example 30, Trans-3-(8-amino-1-(4-phenoxyphenyl)imidazo[1,5-a]pyrazin-3-yl)cyclohexanecarboxylic acid] | 0.18 nM |
| C[C@@]1(C(=O)O)CCC[C@H](c2nc(-c3ccc(Oc4ccccc4)cc3)c3c(N)nccn23)C1 [Example 15, (1R,3S)-3-[8-amino-1-(4-phenoxyphenyl)imidazo [1,5-a]pyrazin-3-yl]-1-methylcyclohexane-carboxylic acid] | 1.3 nM |
| Nc1nccn2c(C3(C(=O)O)CCOCC3)nc(-c3ccc(Oc4ccccc4)cc3)c12 [Example 24, 4-[8-amino-1-(4-phenoxyphenyl)imidazo[1,5-a]pyrazin-3-yl]tetrahydro-2H-pyran-4-carboxylic acid] | 79.6 nM |
| Nc1nccn2c1c(-c1ccc(Oc3cccc(F)c3)cc1)nc2[C@H]1CC[C@@H](C(=O)O)CC1 [Example 11, cis-4-{8-amino-1-[4-(3-fluorophenoxy)phenyl]imidazo[1,5-a]pyrazin-3-yl}cyclohexanecarboxylic acid] | 14.3 nM |
